Data as given in patent US8063040B2, “Triazabenzo[E]azulene derivatives for the treatment of tumors” (Merck Patent Gesellschaft Mit Beschrankter Haftung, priority 2006, dated 2011).
Structures can show the parent of a compound that is named as a salt.

System: TGF-beta
Experiment: Elimination of TGF-beta-mediated growth inhibition in Mv1Lu cells (Crystal Violet staining)
Type: cell-based
Conditions: lung epithelial cell line Mv1Lu, 1 ng/ml TGF-beta, 0.5% FCS, two days, absorption at 550 nm
Description: In-vitro (Enzyme) Assay for Determination of the Efficacy of the Inhibitors of the Inhibition of TGF-Beta-Mediated Effects
As an example, the ability of the inhibitors to eliminate TGF-beta-mediated growth inhibition is tested.
Cells of the lung epithelial cell line Mv1Lu are sown in a defined cell density in a 96-well microtitre plate and cultivated overnight under standard conditions. Next day, the medium is replaced by medium which comprises 0.5% of FCS and 1 ng/ml of TGF-beta, and the test substances are added in defined concentrations, generally in the form of dilution series with 5-fold steps. The concentration of the solvent DMSO is constant at 0.5%. After a further two days, Crystal Violet staining of the cells is carried out. After extraction of the Crystal Violet from the fixed cells, the absorption is measured spectrophotometrically at 550 nm. It can be used as a quantitative measure of the adherent cells present and thus of the cell proliferation during the culture.

Structure (SMILES)	IC50 (Mv1Lu, 48 h) [µM]	IC50 [µM]
COc1ccc2c(c1)CCC(C)c1nnc(-c3cccc(C)n3)n1-2 (centres unmarked) [Compound A1, 8-methoxy-4-methyl-1-(6-methylpyridin-2-yl)-5,6-dihydro-4H-2,3,10b-triazabenz[e]azulene]	3.9	–
Cc1cccc(-c2nnc3n2-c2ccc(O)cc2CCC3C)n1 (centres unmarked) [Compound A2, 8-hydroxy-4-methyl-1-(6-methylpyridin-2-yl)-5,6-dihydro-4H-2,3,10b-triazabenzo[e]azulene]	–	0.2
Cc1cccc(-c2nnc3n2-c2ccc(Cl)cc2C(C)CC3)n1 (centres unmarked) [Compound A4, 8-chloro-6-methyl-1-(6-methylpyridin-2-yl)-5,6-dihydro-4H-2,3,10b-triazabenzo[e]azulene]	9.9	–
COc1ccc2c(c1)C(C)CCc1nnc(-c3cccc(C)n3)n1-2 (centres unmarked) [Compound A18, 8-Methoxy-6-methyl-1-(6-methylpyridin-2-yl)-5,6-dihydro-4H-2,3,10b-triazabenzo[e]azulene, trifluoroacetate]	3.3	–
Cc1cccc(-c2nnc3n2-c2ccc(O)cc2CCC3C)n1 (centres unmarked) [Compound A19, 8-Hydroxy-4-methyl-1-(6-methylpyridin-2-yl)-5,6-dihydro-4H-2,3,10b-triazabenzo[e]azulene]	–	2.5
